Experimental data published in patent US5721359A, “Crystalline ceftiofur free acid” (Pharmacia & Upjohn Company, priority 1995, dated 1998).
“Also recorded” adds a separate entry of the source. Counter-ions that a name gives are not always drawn. Like-named read-outs stand apart in the source and are kept apart here.

How the values were obtained:
[1] = Dissolution rate (Table II, FIG. 9); type: physicochemical; conditions: shown graphically in FIG. 9
Description: "Dissolution rate" is the kinetic translation of solubility for a well stirred system under sink conditions.

[2] = Stability in bulk, aqueous and other formulations; type: physicochemical
Solubility = type: physicochemical; conditions: for Solubility-pH7: pH 7; for solubility in aqueous solvents, comparison crystalline free acid vs crystalline hydrochloride: in words
Description: "Solubility" is a direct consequence of a solid's structure and the intermolecular forces holding the solid together and is defined as the mount of drug which exists in solution when equilibrium is achieved between solution and solid state material.

Hygroscopity = type: physicochemical; conditions: for Hygroscopity: Table II
Description: "Hygroscopity" is the ability of a compound to pick up moisture from or yield moisture to the atmosphere with changes in relative humidity.

In vivo release = conditions: for In Vivo Release: Table II; for sustained release properties in vivo: in words
Description: "In-vivo release" is the biological consequence of the dissolution rate of a compound which is characterized by time to maximum concentration and the maximum concentration in the biological fluid of interest.

[3] = In vitro dissolution of ceftiofur oil suspension formulations (Example 7); type: physicochemical; conditions: 100 mg/ml oil formulation, 500 ml pH 7 aqueous media, 50 RPM paddle, FIG. 6
Method: 100 mg samples of crystalline ceftiofur free acid, amorphous ceftiofur free acid (prepared as described in Example 1) and crystalline ceftiofur hydrochloride, which were all prepared as oil formulations as described in Example 4 above, were loaded into teflon dissolution cells and sealed with a constant surface area dialysis membrane. The loaded cells were placed in a standard dissolution apparatus containing 500 ml of pH 7 aqueous dissolution media which was stirred by a 50 RPM rotating paddle.
The results obtained are shown below in FIG. 6 below.

[4] = design: species or system cattle; conditions: bovine, in vivo, sc, 4.4 mg/kg
Method: Cattle were administered a single subcutaneous dose (4.4 mg/kg body weight) of crystalline ceftiofur free acid and amorphous ceftiofur free acid (both prepared and then formulated as described above in Examples 1, 3 and 4). The concentration of plasma ceftiofur and desfuroylceftiofur related metabolites were determined over time for 120 hours. The primary decision criteria (that most related to efficacy) was considered to be the time that the ceftiofur metabolite concentrations remained above 0.2 mcg/ml (t>0.2). Less important parameters calculated included "area under the concentration-time curve" (AUC) for each treatment and time to maximum concentrations (tmax).
The results are shown graphically in FIG. 7 below by plotting plasma concentration of desfuroylceftiofur acetamide (DCA) versus time using average data for 6 animals/treatment. […] This is especially important in light of the two forms obtaining statistically equivalent peak concentrations (9.1 mcg/ml for the amorphous ceftiofur free acid versus 7.3 mcg/ml for the crystalline ceftiofur free acid).

[5] = Comparison of time above minimum plasma concentration for ceftiofur derivatives; type: in vivo
Description: Using the criteria for sustained release as the time which plasma concentrations remain above some minimum concentration (t>0.2), a comparison of various derivatives of ceftiofur can be made. […] This difference is of practical and statistical significance.

[6] = Plasma disposition of oil suspension of ceftiofur crystalline free acid vs aqueous solution of ceftiofur sodium in cattle (Example 6); type: in vivo, cattle (Holstein calves); conditions: SC; for t>0.2 (time ceftiofur metabolite concentrations remained above 0.2 μg/mL): 2.2 mg ceftiofur activity/kg
Method: Sixteen Holstein calves were administered ceftiofur crystalline free acid in an oil suspension (100 mg/mL) or ceftiofur sodium (NAXCEL® Sterile Powder) as an aqueous solution (50 mg/mL) subcutaneously (SC) in a crossover study (each calf received each treatment), with a two-week washout period between doses (2.2 mg ceftiofur activity/kg body weight). Blood samples were obtained serially for 120 hours after drug administration for analysis of ceftiofur and metabolites (measured as desfuroylceftiofur acetamide by HPLC). The primary decision variable was the time ceftiofur metabolite concentrations remained above 0.2 μg/mL (t>0.2), with secondary decision variables being "relative area under the concentration-time curve" (AUC) of the treatments and injection site irritancy assessed antemortem by visual and manual inspection of the injection site over time. Both t>0.2 and AUC were calculated using both the predictive pharmacokinetic equation method and the direct graphical method of trapezoids (AUC) and log-linear interpolation (t>0.2).

[7] = Plasma disposition of crystalline ceftiofur hydrochloride and crystalline ceftiofur free acid oil suspensions in cattle (Example 9); type: in vivo; conditions: SC, 2.2 mg/kg, oil suspension, 16 animals/treatment; separate studies
Method: In separate but similarly designed studies conducted in the same laboratory, crystalline ceftiofur free acid (CFA) and crystalline ceftiofur hydrochloride (HCl) suspensions were administered subcutaneously to cattle at a dose of 2.2 mg/kg body weight. In each experiment, plasma samples were obtained for up to 120 hours after drug administration for determination of ceftiofur and its metabolites. The results are shown graphically in FIG. 8 below by plotting plasma concentration (on a logarithmic scale) versus time using average data for 16 animals/treatment. The primary decision criteria (that most related to efficacy) was considered to be the time that the ceftiofur metabolite concentrations remained above 0.2 mcg/ml (t>0.2). Less important parameters measures included "area under the concentration-time curve" (AUC) for each treatment and time to peak and peak concentrations.

[8] = Processing (micronization); type: physicochemical; conditions: Table II, cell wraps: 'Difficult to micronize'
[9] = Plasma disposition of aqueous suspensions of ceftiofur crystalline free acid in cattle (Example 5); type: in vivo, cattle (Holstein calves); conditions: aqueous suspension 100 mg/mL, single dose 1.1 mg ceftiofur activity/kg
Method: Sixteen Holstein calves were administered ceftiofur crystalline free acid in an aqueous suspension (100 mg/mL) by the intramuscular (IM) or subcutaneous (SC) route of administration as a single dose of 1.1 mg ceftiofur activity/kg in a crossover study (each calf got each treatment), with a two-week washout between doses. Blood samples were obtained serially for 120 hours for analysis of ceftiofur and metabolites (measured as desfuroylceftiofur acetamide by HPLC). The primary decision variable was the time ceftiofur metabolite concentrations remained above 0.2 μg/mL (t>0.2), with secondary decision variables being "relative area under the concentration-time curve" (AUC) of the treatments and injection site irritancy assessed antemortem by visual and manual inspection of the injection sites over time. Both t>0.2 and AUC were calculated using both the predictive pharmacokinetic equation method and the direct graphical method of trapezoids (AUC) and log linear interpolation (t>0.2).

[10] = unstable in 6 weeks (cell wraps over two lines)
[11] = listed as Crystalline Free Acid

## CON=C(C(=O)NC1C(=O)N2C(C(=O)O)=C(CSC(=O)c3ccco3)CSC12)c1csc(N)n1 (stereo not shown) [amorphous ceftiofur free acid, reference compound]
[1]; listed as Amorphous Free Acid
  Dissolution Rate: Fast
[2]; [10]
  Stability in Aqueous Formulations (>90% initial potency): Unstable
Solubility; listed as Amorphous Free Acid
  Solubility-pH7: ≈ 100 mg/mL
Hygroscopity; listed as Amorphous Free Acid
  Hygroscopity: High
In vivo release; listed as Amorphous Free Acid
  In Vivo Release: Fast
[3]
  release from the oil formulation into the dissolution media: very fast release
[4]
  AUC (area under the concentration-time curve): 70 µg·h/mL
  peak concentrations: 9.1 µg/mL
  t>0.2 (time metabolite concentrations remained above 0.2 mcg/ml): 41 h
  time to peak concentration (tmax): 2 h

## CO/N=C(\C(=O)N[C@@H]1C(=O)N2C(C(=O)O)=C(CSC(=O)c3ccco3)CS[C@H]12)c1csc(N)n1 [ceftiofur sodium]
[5]; aqueous formulations
  rank order of time above the selected minimum plasma concentration (t>0.2): sodium<crystalline hydrochloride<crystalline free acid<zinc
[5]; oil formulations
  rank order of duration above minimum plasma concentration (t>0.2): sodium<crystallinehydrochloride<zinc<crystalline free acid
[6]; aqueous solution 50 mg/mL
  t>0.2 (time ceftiofur metabolite concentrations remained above 0.2 μg/mL): 45.50 h

## CON=C(C(=O)NC1C(=O)N2C(C(=O)O)=C(CSC(=O)c3ccco3)CSC12)c1csc(N)n1 (stereo not shown) [crystalline ceftiofur free acid]
[1]
  Dissolution Rate: slow dissolution rate; also recorded: slower
[1]; [11]
  Dissolution Rate: Slow
[2]; >90% initial potency
  Stability in Aqueous Formulations (>90% initial potency): Stable for 6 months
[2]; in words
  stability (in bulk and formulations) relative to crystalline hydrochloride salt and amorphous free acid: superior
Solubility
  solubility in aqueous solvents, comparison crystalline free acid vs crystalline hydrochloride: lower solubility in aqueous solvents than its crystalline hydrochloride salt
Solubility; non-polar solvents
  solubility in non-polar solvents: insoluble in non-polar solvents
Solubility; [11]
  Solubility-pH7: ≈ 8 mg/mL
Solubility; water
  solubility in water: sparingly soluble in water
Hygroscopity; [11]
  Hygroscopity: Low
Hygroscopity; in words
  hygroscopicity relative to crystalline hydrochloride salt and amorphous free acid: superior
[5]; aqueous formulations
  rank order of time above the selected minimum plasma concentration (t>0.2): sodium<crystalline hydrochloride<crystalline free acid<zinc
[5]; oil formulations
  rank order of duration above minimum plasma concentration (t>0.2): the longest
[7]
  t>0.2 (time metabolite concentrations remained above 0.2 mcg/ml): 121.6 h
In vivo release; [11]
  In Vivo Release: Prolonged
In vivo release
  sustained release properties in vivo: has sustained release properties in vivo
[8]; [11]
  Processing (micronize): Micronizes easier
[3]
  release from the oil formulation into the dissolution media: significantly reduced release
[6]; crystalline free acid in oil, 2.2 mg/kg
  terminal phase half-life (absorption phase, flip-flop model) compared with ceftiofur sodium: longer
[6]; oil suspension 100 mg/mL, P<0.0001 vs ceftiofur sodium
  t>0.2 (time ceftiofur metabolite concentrations remained above 0.2 μg/mL): 121.58 h
[6]; oil suspension vs aqueous solution, 2.2 mg/kg, P>0.05
  bioavailability compared with aqueous solution of ceftiofur sodium: equally bioavailable
[4]
  AUC (area under the concentration-time curve): 183 µg·h/mL
  AUC compared with amorphous ceftiofur free acid: more than twice
  peak concentrations: 7.3 µg/mL
  t>0.2 (time metabolite concentrations remained above 0.2 mcg/ml): 101 h
  time to peak concentration (tmax): 8 h
[9]; IM
  t>0.2 (time ceftiofur metabolite concentrations remained above 0.2 μg/mL): 26.98 h
[9]; SC, P=0.257 vs IM
  t>0.2 (time ceftiofur metabolite concentrations remained above 0.2 μg/mL): 30.43 h

## CO/N=C(\C(=O)N[C@@H]1C(=O)N2C(C(=O)O)=C(CSC(=O)c3ccco3)CS[C@H]12)c1csc(N)n1 [crystalline ceftiofur hydrochloride, reference compound]
[1]
  Dissolution Rate: Fast
[2]; [10]
  Stability in Aqueous Formulations (>90% initial potency): Unstable
Solubility
  solubility in aqueous solvents, comparison crystalline free acid vs crystalline hydrochloride: much greater solubility than the crystalline free acid
Solubility; pH 7, pH 7, cell of crystalline hydrochloride salt, read-out: Solubility-pH7
  solubility: ~100 mg/mL
Hygroscopity
  Hygroscopity: Moderate
[7]
  t>0.2 (time metabolite concentrations remained above 0.2 mcg/ml): 38.5 h
In vivo release
  In Vivo Release: Fast
  sustained release properties in vivo: does not have useful sustained release properties
[8]
  Processing (micronize): Micronizes easier
[3]
  release from the oil formulation into the dissolution media: very fast release

## zinc
[5]; in vivo
  rank order of duration above minimum plasma concentration (t>0.2): sodium<crystallinehydrochloride<zinc<crystalline free acid
  rank order of time above the selected minimum plasma concentration (t>0.2): sodium<crystalline hydrochloride<crystalline free acid<zinc
